{
  "source": "ChEMBL document CHEMBL1201862",
  "about": "“PubChem BioAssay data set” (2004)",
  "assay_in_all_cases": "DTP human tumour cell line panel, 48 h",
  "key": {"[1]": {"system": "NCI-H522"}, "[2]": {"system": "OVCAR-4"}, "[3]": {"system": "SNB-19"}, "[4]": {"system": "T47D"}, "[5]": {"system": "RXF 393"}, "[6]": {"system": "Hs-578T"}, "[7]": {"system": "KM12"}, "[8]": {"system": "HCT-15"}, "[9]": {"system": "ACHN"}, "[10]": {"system": "MDA-N"}, "[11]": {"system": "HOP-92"}, "[12]": {"system": "SK-MEL-2"}, "[13]": {"system": "SW-620"}, "[14]": {"system": "A498"}, "[15]": {"system": "EKVX"}, "[16]": {"system": "U-251"}, "[17]": {"system": "SK-MEL-28"}, "[18]": {"system": "MDA-MB-435"}, "[19]": {"system": "IGROV-1"}, "[20]": {"system": "TK-10"}, "[21]": {"system": "CCRF-CEM"}, "[22]": {"system": "SF-295"}, "[23]": {"system": "HL-60"}, "[24]": {"system": "NCI/ADR-RES"}, "[25]": {"system": "LOX IMVI"}, "[26]": {"system": "786-0"}, "[27]": {"system": "NCI-H226"}, "[28]": {"system": "OVCAR-3"}, "[29]": {"system": "K562"}, "[30]": {"system": "UACC-257"}, "[31]": {"system": "UO-31"}, "[32]": {"system": "HCT-116"}, "[33]": {"system": "RPMI-8226"}, "[34]": {"system": "SN12C"}, "[35]": {"system": "NCI-H23"}, "[36]": {"system": "SNB-75"}, "[37]": {"system": "UACC-62"}, "[38]": {"system": "M14"}, "[39]": {"system": "PC-3"}, "[40]": {"system": "MDA-MB-231"}, "[41]": {"system": "COLO 205"}, "[42]": {"system": "SK-OV-3"}, "[43]": {"system": "NCI-H460"}, "[44]": {"system": "OVCAR-8"}, "[45]": {"system": "MOLT-4"}, "[46]": {"system": "SK-MEL-5"}, "[47]": {"system": "DU-145"}, "[48]": {"system": "CAKI-1"}, "[49]": {"system": "HT-29"}, "[50]": {"system": "MCF7"}, "[51]": {"system": "OVCAR-5"}, "[52]": {"system": "SF-539"}, "[53]": {"system": "HOP-62"}, "[54]": {"system": "Malme-3M"}, "[55]": {"system": "SF-268"}, "[56]": {"system": "A549"}},
  "note": "Values joined by “and” are separate entries in the source; they are usually repeats but may differ in a detail not shown here. Equal entries are not always repeated.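 Growth conditions: 96-well plates. Treatment: test compound, 48 hours, 5 concentrations. Analysis: linear interpolation between bracketing concentrations; unreached endpoints set to highest concentration. GI50 marks 50% less growth.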 Active and inactive are the calls of the source. Rule as the data show it: active = GI50 up to about 1.1 µM and inactive = higher.",
  "data": [
    {"smiles": "CC(=O)c1ccc(NCc2cc(O)ccc2O)cc1", "values": [
      {"measurement": "GI50", "setting": "[1]", "result": "31.3 µM (inactive)"},
      {"measurement": "GI50", "setting": "[2]", "result": "18.5 µM (inactive)"},
      {"measurement": "GI50", "setting": "[3]", "result": "38.8 µM (inactive)"},
      {"measurement": "GI50", "setting": "[4]", "result": "14.3 µM (inactive)"},
      {"measurement": "GI50", "setting": "[5]", "result": "14 µM (inactive)"},
      {"measurement": "GI50", "setting": "[6]", "result": "29.4 µM (inactive)"},
      {"measurement": "GI50", "setting": "[7]", "result": "14.2 µM (inactive)"},
      {"measurement": "GI50", "setting": "[8]", "result": 24.9, "unit": "µM"},
      {"measurement": "GI50", "setting": "[9]", "result": "18.5 µM (inactive)"},
      {"measurement": "GI50", "setting": "[10]", "result": "20.4 µM (inactive)"},
      {"measurement": "GI50", "setting": "[11]", "result": "17.9 µM (inactive)"},
      {"measurement": "GI50", "setting": "[12]", "result": "20.4 µM (inactive)"},
      {"measurement": "GI50", "setting": "[13]", "result": "36.7 µM (inactive)"},
      {"measurement": "GI50", "setting": "[14]", "result": "36.1 µM (inactive)"},
      {"measurement": "GI50", "setting": "[15]", "result": "30 µM (inactive)"},
      {"measurement": "GI50", "setting": "[16]", "result": "21.8 µM (inactive)"},
      {"measurement": "GI50", "setting": "[17]", "result": "40.3 µM (inactive)"},
      {"measurement": "GI50", "setting": "[18]", "result": "21.1 µM (inactive)"},
      {"measurement": "GI50", "setting": "[19]", "result": "> 100 µM (inactive)"},
      {"measurement": "GI50", "setting": "[20]", "result": "15.3 µM (inactive)"},
      {"measurement": "GI50", "setting": "[21]", "result": "8.55 µM (inactive)"},
      {"measurement": "GI50", "setting": "[22]", "result": "17.8 µM (inactive)"},
      {"measurement": "GI50", "setting": "[23]", "result": "3.53 µM (inactive)"},
      {"measurement": "GI50", "setting": "[24]", "result": "36.5 µM (inactive)"},
      {"measurement": "GI50", "setting": "[25]", "result": "24.8 µM (inactive)"},
      {"measurement": "GI50", "setting": "[26]", "result": "13.3 µM (inactive)"},
      {"measurement": "GI50", "setting": "[27]", "result": "34.7 µM (inactive)"},
      {"measurement": "GI50", "setting": "[28]", "result": "7.06 µM (inactive)"},
      {"measurement": "GI50", "setting": "[29]", "result": "32.2 µM (inactive)"},
      {"measurement": "GI50", "setting": "[30]", "result": "17.5 µM (inactive)"},
      {"measurement": "GI50", "setting": "[31]", "result": "11.4 µM (inactive)"},
      {"measurement": "GI50", "setting": "[32]", "result": "17.4 µM (inactive)"},
      {"measurement": "GI50", "setting": "[33]", "result": "5.38 µM (inactive)"},
      {"measurement": "GI50", "setting": "[34]", "result": "25.5 µM (inactive)"},
      {"measurement": "GI50", "setting": "[35]", "result": "22.5 µM (inactive)"},
      {"measurement": "GI50", "setting": "[36]", "result": "13.7 µM (inactive)"},
      {"measurement": "GI50", "setting": "[37]", "result": "15.3 µM (inactive)"},
      {"measurement": "GI50", "setting": "[38]", "result": "19.1 µM (inactive)"},
      {"measurement": "GI50", "setting": "[39]", "result": "15.2 µM (inactive)"},
      {"measurement": "GI50", "setting": "[40]", "result": "21.8 µM (inactive)"},
      {"measurement": "GI50", "setting": "[41]", "result": "11.8 µM (inactive)"},
      {"measurement": "GI50", "setting": "[42]", "result": "23 µM (inactive)"},
      {"measurement": "GI50", "setting": "[43]", "result": "23.1 µM (inactive)"},
      {"measurement": "GI50", "setting": "[44]", "result": "23.8 µM (inactive)"},
      {"measurement": "GI50", "setting": "[45]", "result": "3.85 µM (inactive)"},
      {"measurement": "GI50", "setting": "[46]", "result": "18.3 µM (inactive)"},
      {"measurement": "GI50", "setting": "[47]", "result": "23 µM (inactive)"},
      {"measurement": "GI50", "setting": "[48]", "result": "17.9 µM (inactive)"},
      {"measurement": "GI50", "setting": "[49]", "result": "32.1 µM (inactive)"},
      {"measurement": "GI50", "setting": "[50]", "result": "21.7 µM (inactive)"},
      {"measurement": "GI50", "setting": "[51]", "result": "21.3 µM (inactive)"},
      {"measurement": "GI50", "setting": "[52]", "result": "14.5 µM (inactive)"},
      {"measurement": "GI50", "setting": "[53]", "result": "20.6 µM (inactive)"}
    ]},
    {"smiles": "COC(=O)/C=C/c1cc(OC)c2c(c1)C(C(=O)OC)C(c1ccc(O)c(OC)c1)O2", "note": "(centres undefined)", "values": [
      {"measurement": "GI50", "setting": "[4]", "result": "3.87 µM (inactive) and 7.14 µM (inactive) and 3.73 µM (inactive)"},
      {"measurement": "GI50", "setting": "[5]", "result": "1.88 µM (inactive) and 2.98 µM (inactive) and 2.43 µM (inactive)"},
      {"measurement": "GI50", "setting": "[6]", "result": "2.69 µM (inactive) and 2.38 µM (inactive) and 1.67 µM (inactive)"},
      {"measurement": "GI50", "setting": "[7]", "result": "2.83 µM (inactive) and 3.34 µM (inactive) and 2.13 µM (inactive)"},
      {"measurement": "GI50", "setting": "[14]", "result": "8.95 µM (inactive) and 15.2 µM (inactive) and 8.2 µM (inactive)"},
      {"measurement": "GI50", "setting": "[16]", "result": "3.4 µM (inactive) and 3.29 µM (inactive) and 3.13 µM (inactive)"},
      {"measurement": "GI50", "setting": "[22]", "result": "2.2 µM (inactive) and 2.36 µM (inactive) and 1.22 µM (inactive)"},
      {"measurement": "GI50", "setting": "[26]", "result": "3.44 µM (inactive) and 2.21 µM (inactive) and 4.33 µM (inactive)"},
      {"measurement": "GI50", "setting": "[54]", "result": "4.58 µM (inactive) and 4.39 µM (inactive) and 2.74 µM (inactive)"},
      {"measurement": "GI50", "setting": "[31]", "result": "4.98 µM (inactive) and 4.86 µM (inactive) and 9.53 µM (inactive)"},
      {"measurement": "GI50", "setting": "[35]", "result": "5.08 µM (inactive) and 3.93 µM (inactive) and 5.18 µM (inactive)"},
      {"measurement": "GI50", "setting": "[36]", "result": "1.95 µM (inactive) and 1.51 µM (inactive) and 1.94 µM (inactive)"},
      {"measurement": "GI50", "setting": "[38]", "result": "4.05 µM (inactive) and 5.74 µM (inactive) and 3.53 µM (inactive)"},
      {"measurement": "GI50", "setting": "[39]", "result": "3.13 µM (inactive) and 2.84 µM (inactive) and 2.79 µM (inactive)"},
      {"measurement": "GI50", "setting": "[40]", "result": "2.49 µM (inactive) and 4.51 µM (inactive) and 3.15 µM (inactive)"},
      {"measurement": "GI50", "setting": "[42]", "result": "5.71 µM (inactive) and 5.64 µM (inactive) and 3.26 µM (inactive)"},
      {"measurement": "GI50", "setting": "[46]", "result": "2.27 µM (inactive) and 2.57 µM (inactive) and 1.4 µM (inactive)"},
      {"measurement": "GI50", "setting": "[47]", "result": "3.72 µM (inactive) and 3.18 µM (inactive) and 4.32 µM (inactive)"},
      {"measurement": "GI50", "setting": "[55]", "result": "7.87 µM (inactive) and 8.04 µM (inactive) and 5.83 µM (inactive)"},
      {"measurement": "GI50", "setting": "[52]", "result": "2.69 µM (inactive) and 2.17 µM (inactive) and 1.82 µM (inactive)"},
      {"measurement": "GI50", "setting": "[56]", "result": "6.25 µM (inactive) and 5.69 µM (inactive) and 6 µM (inactive)"}
    ]}
  ]
}
